{
  "source": "patent US20180118707A1",
  "about": "“BETA-NAPHTHOISOFLAVONES, COMPOSITIONS CONTAINING, AND USES OF, SAME” (Thesan Pharmaceuticals, Inc., priority 2015, published 2018)",
  "tested_on": "HepG2 cells",
  "test": "MTT cytotoxicity assay in HepG2 cells after EROD",
  "format": "cell-based, human",
  "method": "The formation of resorufin is quantified by fluorometry with a fluorescence plate reader. Fluorescence is determined at λex 570 nm and λem 590 nm. The amount of resorufin is calculated from a standard curve generated using 0 to 1 μM resorufin in water at ½ log dilutions. The remaining (i.e. all cells present at the beginning of analysis, since only supernatant is taken to assay EROD) live cells are subsequently utilized for the MIT cytotoxicity assay. MTT is made up in serum-free medium at 5 mg/ml. then added to the cells giving a final concentration of 10% (0.5 mg/ml MTT final) then incubated for 2 h. The medium is carefully removed, then MTT formazan is solubilized by adding 200 μl of DMSO and subsequently mixed on a plate shaker. The absorbance is measured spectra photometrically at 550 nm and background absorbance at 690 nm is subtracted.",
  "data": [
    {"smiles": "O=c1cc(-c2ccccc2)oc2ccc3ccccc3c12", "note": "[D, 3-Phenyl-1H-benzo[f]chromen-1-one, reference compound]", "values": [
      {"measurement": "Toxicity threshold", "value": ">50", "unit": "µM"}
    ]}
  ]
}
